Data published in publication PMC4466507, “Seneca Valley Virus 3C^pro Substrate Optimization Yields Efficient Substrates for Use in Peptide-Prodrug Therapy” (PLoS ONE, 2015).
“And” between values parts separate entries of the source, which are not always exact repeats. Identical values can stand only once.

Columns and labels:
SVV-001 3C^pro = biological target: T1, SVV-001 3C^pro (Seneca Valley virus, UniProt Q155Z9); assay: FRET substrate cleavage assay with purified recombinant SVV-001 3C^pro; format: biochemical, Seneca Valley Virus (SVV-001); settings: for cleavage by SVV-001 3C^pro (result in words): FRET fusion protein substrate 200 nM, 30°C; for cleavage by SVV-001 3C^pro (result in words) / kcat/KM: 3 h; for kcat/KM: CyPet/YPet FRET fusion protein substrate 200 nM, PBS pH 7.4, 30°C, average of 5–7 experiments, uncertainty SD, N/A where no cleavage was measurable; for Relative to WT: kcat/KM relative to endogenous L/VP4 FRET substrate
T1 construct: made in house; host or cells: E. coli BL21 AI
Description: (§1) Reactions were performed in PBS, pH 7.4 and 200 nM FRET substrate in a total volume of 100 μL. Substrates were incubated with 250 nM SVV-001 3C^pro at 30°C for 3 h. Human rhinovirus (HRV) control substrate was incubated with recombinant HRV 3C^pro under the same conditions. Fluorescence emissions at 475 nm and 527 nm, corresponding to CyPet and YPet respectively, were followed after excitation at 433 nm every 180 s by a Safire fluorimeter (Tecan). All experiments were performed in triplicate. FRET ratios (YPet fluorescence/CyPet fluorescence) were calculated at each timepoint. Conversion of each substrate to cleaved substrate was calculated by dividing the change in the FRET ratio at each timepoint by the total change in the FRET ratio corresponding to complete cleavage of the substrate. Using the equation from Boulware et al., conversion data was plotted vs. time (s) and fit with the equation: […] where [E] is the 3C^pro concentration (M) and t is time (s). The second order rate constant (k cat/K M) was determined by the curve fit using GraphPad Prism software. Reported values are the average k cat/K M values of 5–7 experiments. Uncertainty is expressed by standard deviation. Error bars on data points were removed for figure clarity.

[1] = biological target: T2, SVV-001 3C^pro produced during SVV-001 infection of NCI-H446 cells (Seneca Valley virus, UniProt Q155Z9); assay: FRET substrate cellular assay (SVV-001 infected NCI-H446 cells); format: cell-based, Seneca Valley Virus (SVV-001); settings: FP substrate 200 nM, NCI-H446 cells after 8 h SVV-001 infection, 3 h at 37°C
T2 construct: 3C^pro released during a lytic viral infection is the sole source of the 3C^pro; endogenous in cells; host or cells: NCI-H446 (human SCLC) cells infected with wild-type SVV-001 for 8 h
Description: (§2) All SVV-001 stocks were cultured and purified as described previously and virus titers were determined by tissue culture infective dose (TCID50). The SCLC cell line, NCI-H446 (ATCC) was cultured in RPMI 1640 media (Quality Biological) supplemented with 10% fetal bovine serum (HyClone). The cell line NCI-H446 is routinely tested and authenticated by short tandem repeat (STR) analysis by DDC Medical and was last authenticated six months before submission.
Cells (1.6 × 10^7) were plated on a 150 mm cell culture dish (Corning) and allowed to recover overnight at 37°C. Each plate was inoculated with SVV-001 at the TCID50 and infected cells were incubated at 37°C for 8 h. After aspiration of the media, cells were mechanically lifted from the plate in phenol-red free RPMI 1640 media (Gibco) and pelleted by centrifugation. […] During the substrate incubation the change in FRET was measured with a Tecan Safire fluorimeter as described above. Conversion of the L/VP4.1 substrate to cleaved substrate was calculated by dividing the change in the FRET ratio at each time point by the total change in the FRET ratio corresponding to complete cleavage of the substrate. The conversion of the NHL substrate was similarly determined by dividing the change in the FRET ratio of the NHL at each time point by the total change in the FRET ratio of the L/VP4.1 substrate corresponding to complete cleavage. […]

Plasma stability assay = format: in vitro ADME; settings: pooled, 50% plasma/water, peptide 20 μM, 1 hour at 37°C; for change in fluorescence relative to plasma alone: human plasma, fluorescence read-out (ex 490 nm/em 520 nm) every 60 s, triplicate
Description: Human plasma was obtained from pooled discarded clinical samples less than 6 hrs old. Human plasma was isolated from whole blood by centrifugation, pooled, and diluted 1:1 with distilled H2O (Gibco). The L/VP4.1 and NHL fluorogenic peptides (20 μM) were incubated with plasma for 1 h at 37°C. Fluorescence emissions were obtained as described above by a DTX 880 multimode detector ([…]) every 60 s. Experiments were performed in triplicate in a 96 well flat bottom black opaque plate and the average fluorescence units were used to observe changes in fluorescence. Uncertainty is expressed by standard deviation.

[2] = biological target: T2, SVV-001 3C^pro produced during SVV-001 infection of NCI-H446 cells; assay: Fluorescently quenched peptide cellular assay (SVV-001 infected NCI-H446 cells); format: cell-based, Seneca Valley Virus (SVV-001); settings: FQ peptide 3 μM; for cleavage (increase in fluorescence) with SVV-001 infected cells / cleavage (increase in fluorescence) with uninfected cells: 3 hours at 37°C
Description: as §2
A similar cellular assay was performed as described in the previous paragraph with the exception of using the CPQ2/5-FAM L/VP4.1 and NHL fluorogenic peptides described earlier. After an 8 hour infection with SVV-001, NCI-H446 cells were removed from the cell culture dish using phenol-red free RPMI 1640 media supplemented with 0.1% ethylenediaminetetraacetic acid (EDTA, Sigma) to aid in gentle cell detachment, and pelleted via centrifugation. Pellets were resuspended in phenol-red free RPMI 1640 prior to plating in black opaque 96 well plates as above. CPQ2/5-FAM peptides, L/VP4.1 or NHL were added at a final concentration of 3 μM to plated cells and incubated for 3 hours at 37°C. Fluorescence emissions at 520 nm, corresponding to the liberated 5-FAM fluorophore peptide cleavage product was followed after excitation at 490 nm by a Synergy Neo multimode plate reader (Biotek) every 60 s. The experiment was performed in triplicate in a 96 well flat bottom black opaque plate and average fluorescence units were used to observe changes in fluorescence. Standard curves of 5-FAM fluorescence vs. concentration were generated to convert the relative fluorescence units to moles of cleaved product generated during the reaction. Initial rates of hydrolysis were calculated from data during the first 10 minutes of the reaction and averaged from 3–4 separate experiments. Uncertainty is expressed by standard deviation and shown with error bars.

HRV 3C^pro = biological target: T3, HRV 3C^pro (Human rhinovirus 14, UniProt P03303); assay: FRET substrate cleavage assay with recombinant HRV 3C^pro; format: biochemical
T3 construct: Recombinant HRV 3C Protease was purchased from Sigma; purchased Sigma
Description: as §1
Supplementary file pone.0129103.s004.tif: S4 Fig Comparison of SVV 3C^pro- L/VP4.1 Substrate Specificity to Selected Picornavirus Protease-Substrate Pairs. A. Substrates L/VP4.1 (labeled SVV), HRV, and Coxsackievirus (CAV) 2C/3A substrate (labeled CAV) with amino acid sequence MEALFQ↓GP were incubated with 250 nM SVV 3C^pro (black data points), HRV 3C^pro (blue data points), or CAV 3C^pro (red data points) for 3 hours at 30°C. CAV 3C^pro was cloned, overexpressed, and purified using the same methods described for SVV 3C^pro in the Methods section. The decrease in FRET was measured in real time using a fluorimeter and data was converted to display fraction of substrate converted to hydrolyzed substrate over time. Data points represent the average of three replicates at each time point. […]

CAV 3C^pro = assay: FRET substrate cleavage assay with CAV 3C^pro; format: biochemical, Coxsackie A virus (CAV); settings: 250 nM CAV 3C^pro, 3 hours at 30°C
Description: Supplementary file pone.0129103.s004.tif: S4 Fig Comparison of SVV 3C^pro- L/VP4.1 Substrate Specificity to Selected Picornavirus Protease-Substrate Pairs. A. Substrates L/VP4.1 (labeled SVV), HRV, and Coxsackievirus (CAV) 2C/3A substrate (labeled CAV) with amino acid sequence MEALFQ↓GP were incubated with 250 nM SVV 3C^pro (black data points), HRV 3C^pro (blue data points), or CAV 3C^pro (red data points) for 3 hours at 30°C. CAV 3C^pro was cloned, overexpressed, and purified using the same methods described for SVV 3C^pro in the Methods section. The decrease in FRET was measured in real time using a fluorimeter and data was converted to display fraction of substrate converted to hydrolyzed substrate over time. Data points represent the average of three replicates at each time point. B. Heat map depicting relative rates of cleavage for protease-substrate pairs compared to the native protease-substrate pair. (TIF) Click here for additional data file.

[3] = FRET fusion protein substrate, 250 nM SVV-001 3C^pro
[4] = NCI-H446 cells after 8 hour SVV-001 infection

T3 sequence (P03303 1538-1719): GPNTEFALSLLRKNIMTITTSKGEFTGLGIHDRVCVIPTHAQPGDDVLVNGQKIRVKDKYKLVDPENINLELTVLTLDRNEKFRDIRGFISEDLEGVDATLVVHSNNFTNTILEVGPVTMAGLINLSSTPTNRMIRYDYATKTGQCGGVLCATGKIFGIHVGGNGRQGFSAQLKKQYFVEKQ
T1 sequence (Q155Z9 1509-1719): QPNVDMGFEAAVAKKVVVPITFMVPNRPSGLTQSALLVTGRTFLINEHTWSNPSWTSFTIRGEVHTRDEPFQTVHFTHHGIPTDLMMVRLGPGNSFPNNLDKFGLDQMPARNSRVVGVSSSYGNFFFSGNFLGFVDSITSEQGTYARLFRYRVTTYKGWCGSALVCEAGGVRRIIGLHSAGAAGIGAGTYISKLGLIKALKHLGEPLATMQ
T2 sequence (Q155Z9 1508-1719): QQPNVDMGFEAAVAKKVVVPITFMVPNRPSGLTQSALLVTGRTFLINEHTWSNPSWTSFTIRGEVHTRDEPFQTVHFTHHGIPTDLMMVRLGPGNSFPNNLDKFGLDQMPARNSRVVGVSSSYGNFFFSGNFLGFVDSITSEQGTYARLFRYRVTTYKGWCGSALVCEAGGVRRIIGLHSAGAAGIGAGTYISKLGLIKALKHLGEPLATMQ

Substance: IVYELQ↓SP [L/VP4.9, P1’ GN→SP substituted form of L/VP4 (IVYELQ↓SP) cloned between CyPET and YPET]
- cleavage by SVV-001 3C^pro (result in words) (SVV-001 3C^pro; 250 nM SVV-001 3C^pro): increased turnover efficiency over L/VP4, but was inferior to L/VP4.1

Substance: IVYEPQGP [L/VP4.2, L/VP4.1 FRET substrate with P2 L→P substitution]
- cleavage by SVV-001 3C^pro (result in words) (SVV-001 3C^pro; 250 nM SVV-001 3C^pro): not efficiently cleaved in 3 hours

Substance: IVFELQGP [L/VP4.3, L/VP4.1 FRET substrate with P4 Y→F substitution]
- kcat/KM (SVV-001 3C^pro; 250 nM SVV-001 3C^pro): 12160 M⁻¹ s⁻¹
- cleavage less efficient than the L/VP4.1 Pro variant (SVV-001 3C^pro; [3]): 30%
- Relative to WT (SVV-001 3C^pro): 6.3

Substance: GGSGGS [NHL, non-hydrolysable linker FP substrate (GGSGGS), negative control, reference compound]
- loss of FRET (cleavage) with SVV-001 infected cells [1]: did not show a loss of FRET
- change in fluorescence relative to plasma alone (Plasma stability assay): no significant change in fluorescence

Substance: CPQ2-IVYELQGP-K(5FAM)-KK-NH2 [L/VP4.1 FQ peptide]
- initial rate of reaction, SVV infected cells ([2]; NCI-H446 cells after 8 hour SVV-001 infection, 37°C, first 10 minutes, averaged from 3–4 experiments, SD): 0.446 ± 0.0056 pmol/s
- cleavage (increase in fluorescence) with SVV-001 infected cells [2, 4]: significant increase in fluorescence
- initial rate of reaction, uninfected cells ([2]; uninfected NCI-H446 cells, 37°C, first 10 minutes, averaged from 3–4 experiments, SD): 0.168 ± 0.0025 pmol/s
- cleavage (increase in fluorescence) with uninfected cells ([2]; uninfected NCI-H446 cells): did not show an appreciable increase in fluorescence
- change in fluorescence relative to plasma alone (Plasma stability assay): no significant change in fluorescence
- stability in human plasma (conclusion) (Plasma stability assay; fluorescence read-out): stable

Substance: LEVLFQGP [HRV, optimized human rhinovirus 3C^pro FP substrate (LEVLFQGP), positive control]
- kcat/KM (HRV 3C^pro; CyPet/YPet FRET fusion protein substrate 200 nM, recombinant HRV 3C^pro, PBS pH 7.4, 30°C, 3 h, average of 5–7 experiments, uncertainty SD): 5079 ± 528 M⁻¹ s⁻¹ and 5079 M⁻¹ s⁻¹
- kcat/KM higher than either SVV FP substrate (L/VP4, 2B/2C) (HRV 3C^pro; HRV FP substrate with HRV 3C^pro versus SVV FP substrates with SVV-001 3C^pro): 3-4 fold

Substance: IVYELQGP [L/VP4.1, L/VP4 with Q↓GP (P2’ N→P substitution), FRET fusion protein substrate]
- turnover by non-native 3C protease (HRV 3C^pro) (HRV 3C^pro; FRET substrate, 250 nM HRV 3C^pro, 3 hours at 30°C): no turnover
- kcat/KM (SVV-001 3C^pro; 250 nM SVV-001 3C^pro): 17446 ± 2203 M⁻¹ s⁻¹ and 17446 M⁻¹ s⁻¹
- increase of kcat/KM relative to L/VP4 (SVV-001 3C^pro; [3]): approximately 9 fold
- Relative to WT (SVV-001 3C^pro): 9.0
- loss of FRET (cleavage) with SVV-001 infected cells [1]: Loss of FRET
- turnover by non-native 3C protease (CAV 3C^pro) (CAV 3C^pro): no turnover

Substance: VYELQGP [L/VP4.5, P6 truncation of L/VP4.1 FRET substrate]
- kcat/KM (SVV-001 3C^pro; 250 nM SVV-001 3C^pro): 9839 M⁻¹ s⁻¹
- decrease of turnover efficiency of cleavage from L/VP4.1 (SVV-001 3C^pro; [3]): ~2 fold
- Relative to WT (SVV-001 3C^pro): 5.1

Substance: KLFKMQGP [2B/2C, endogenous SVV-001 cleavage site KLFKMQGP cloned between CyPet and YPet as FRET fusion protein substrate]
- kcat/KM (SVV-001 3C^pro; 250 nM SVV-001 3C^pro): 1204 ± 146 M⁻¹ s⁻¹ and 1204 M⁻¹ s⁻¹
- cleavage by SVV-001 3C^pro (result in words) (SVV-001 3C^pro; 250 nM SVV-001 3C^pro): efficiently cleaved

Substance: IVMELQGP [L/VP4.4, L/VP4.1 FRET substrate with P4 Y→M substitution]
- kcat/KM (SVV-001 3C^pro; 250 nM SVV-001 3C^pro): 10344 M⁻¹ s⁻¹
- cleavage less efficient than the L/VP4.1 Pro variant (SVV-001 3C^pro; [3]): 40%
- Relative to WT (SVV-001 3C^pro): 5.3

Substance: IVYELQGN [L/VP4, endogenous SVV-001 3C^pro cleavage site IVYELQGN cloned between CyPet and YPet as FRET fusion protein substrate]
- kcat/KM (SVV-001 3C^pro; 250 nM SVV-001 3C^pro): 1932 ± 183 M⁻¹ s⁻¹ and 1932 M⁻¹ s⁻¹
- cleavage by SVV-001 3C^pro (result in words) (SVV-001 3C^pro; 250 nM SVV-001 3C^pro): efficiently cleaved

Substance: CPQ2-GGSGGS-K(5FAM)-KK-NH2 [NHL FQ peptide, non-hydrolysable linker peptide CPQ2-GGSGGS-K(5FAM)-KK-NH2, negative control, reference compound]
- cleavage (increase in fluorescence) with SVV-001 infected cells [2, 4]: not cleaved
- cleavage (increase in fluorescence) with uninfected cells ([2]; uninfected NCI-H446 cells): not cleaved

Substance: YELQGP [L/VP4.6, P5/P6 truncation of L/VP4.1 FRET substrate]
- kcat/KM (SVV-001 3C^pro; 250 nM SVV-001 3C^pro): 1939 M⁻¹ s⁻¹
- Relative to WT (SVV-001 3C^pro): 1.0
